Measurements: US20220017861A1, “UREMIC VASCULOPATHY MODEL USING ENDOTHELIAL CELLS DERIVED FROM INDUCED PLURIPOTENT STEM CELLS AND UREMIC COMPLEX, AND USE THEREOF” (SAMSUNG LIFE PUBLIC WELFARE FOUNDATION, priority 2018, published 2022)
Where a name gives a salt, the structure may show the parent alone.

Tests used:
Type in all cases: cell-based
[1] = test system: endothelial cells differentiated from induced pluripotent stem cells; assay: Apoptosis of endothelial cells (Caspase-Glo 3/7 assay); details: FIG. 7
Method: , apoptosis of endothelial cell was measured according to the manufactural instructions using the Caspase-Glo 3/7 assay systems kit (Promega, catalog number G8091), and the results are shown in FIG. 4.

[2] = test system: endothelial cells derived from normal control induced pluripotent stem cells; assay: Drug effect verification by tube formation in uremic vasculopathy endothelial cell model; details: cells exposed to uremic toxin mixture or ESKD patient serum, then treated with drug, FIG. 11
Method: (§1) In order to evaluate the functional abnormality of endothelial cells that may form vascular structures, the tube formation ability was measured. After seeding endothelial cells into a 24 or 12-well plate applied with Matrigel (Corning, catalog number CB-40234). After 16 to 24 hours of incubation, the level of tube formation was compared and analyzed.
In order to confirm whether the effect of the drug can be verified using the uremic vasculopathy endothelial cell model prepared by treating with the uremic toxin mixture of the present invention, the uremic toxin mixture of the present invention or ESKD patient's serum was applied to endothelial cells derived from normal control induced pluripotent stem cells. Then, SD-208 (TGF-β inhibitor) and losartan (angiotensin receptor blocker) were treated to measure the level of tube formation in order to examine respective effects. The endothelial cells' tube formation ability was measured and compared in the uremic toxin mixture of the present invention (UT-F, UT-H, uric acid 3 (UA 3)), serum of patients with chronic kidney disease (patient 2, patient 4), normal control serum (control 1) and cell culture medium alone (media only).

[3] = test system: endothelial cells differentiated from induced pluripotent stem cells; assay: Tube formation ability of endothelial cells on Matrigel; details: 16 to 24 hours of incubation on Matrigel, FIGS. 8 and 9
Method: as §1
In order to confirm the reliability and effectiveness of the uremic vasculopathy endothelial cell model prepared by treating endothelial cells with the uremic toxin mixture of the present invention, the level of tube formation was measured to compare effects of the serum of ESKD patient undergoing hemodialysis and the uremic toxin mixture of the present invention by measuring the tube formation level.

| SMILES | apoptosis of endothelial cells ([1]; single uremic toxin at 1 mM) | inhibition of endothelial cell tube formation after drug treatment [2] | also measured |
| --- | --- | --- | --- |
| O=S(=O)(O)Oc1c[nH]c2ccccc12 [indoxyl sulfate, Indoxyl sulfate] | not significantly promoted | – | – |
| Fc1ccc(Cl)cc1-c1nc(Nc2ccncc2)c2nccnc2n1 [SD-208] | – | alleviated | – |
| NC(N)=O [urea, Urea] | – | – | apoptosis of endothelial cells ([1]; single uremic toxin at 50 mM): not significantly promoted |
| CCCCc1nc(Cl)c(CO)n1Cc1ccc(-c2ccccc2-c2nn[nH]n2)cc1 [losartan] | – | alleviated | – |
| O=c1[nH]c(=O)c2[nH]c(=O)[nH]c2[nH]1 [uric acid, Uric acid] | significantly promoted | – | tube formation ability of endothelial cells [3]: well maintained |
